Results from US4110321A, “Synthetic tridecapeptide [Gln^4 ]-neurotensin having hormonal activity” (priority 1977, dated 1978).
Where no end group is shown, it is not given here.

Legend:
[1] = system: canine fundic, antral and intestinal pouches; assay: Spontaneous motor activity in isolated canine fundic, antral and intestinal pouches; type: in vivo, dog; conditions: intravenous infusion for 30 min
Protocol: The action of [Gln^4 ]-neurotensin was tested on the spontaneous motor activity in isolated canine fundic, antral and intestinal pouches. All of these pouches had been prepared more than 6 months prior to the testing. […] The gastro-intestinal tract appears to be the principal target organ for [Gln^4 ]-neurotensin, and is a basis for clinical use of [Gln^4 ]-neurotensin in patients having diseases of gastroenterology (S. Andersson, M.D. S. Rosell M.D., U. Hjelmquist M.D., D. Chang Ph.D. and K. Folkers Ph.D., Gastroenterology, in press).

[2] = system: rabbit anti-NT serum; assay: Radioimmunoassay; type: binding; conditions: I^125 -NT, two rabbit antisera, pH 7.4, 4° C.
Protocol: Two antisera were used in these assays. One has been characterized as being directed solely toward the COOH-terminus, and the other requires most of the molecule.
The radioimmunoassay method used was an equilibrium system carried out at pH 7.4 in 10 × 75 mm disposable flint glass tubes and employing PBS-gel as diluent. […] The mixtures were allowed to stand at 4° C. for 18-24 hours. The "bound" (B) and "free" (F) trace were separated at 4° C. by the rapid addition of 1.0 ml of a 1:4 dilution of a stock suspension of charcoal (2.5%) and dextran T-70 (0.25%) in PBS to each tube. The tubes were immediately centrifuged for 20 min at 2000 rpm (PRJ-Universal), and the supernatant fluids were decanted into new tubes. […] "Damage" was usually 2-4% and using antisera at a final dilution of 1:10,000 gave 50-70% binding. All unknowns were assayed in duplicate at three dilutions so as to span the sensitive portion of the curve. The results were obtained by averaging the concentrations determined at each dilution provided that they agreed within 20%.

[3] = system: anesthetized dogs; assay: Heart, blood flow, blood glucose and lipolysis in anesthetized dogs; type: in vivo, dog
Excerpt: [Gln^4 ]-neurotensin ([Gln]^4 -NT) has also been studied on the heart and on the blood from in subcutaneous adipose tissue, skin, and small intestine in anesthetized dogs. In addition, its possible action has been investigated on blood glucose concentration and lypolysis in subcutaneous adipose tissue.

[4] = system: rats; assay: Hypotensive Assay; type: in vivo, rat; conditions: rats anesthetized with pentobarbital; 50 picomoles/100 g body weight via tail vein
Protocol: Systemic blood pressure was measured with a Hewlett-Packard recorder and pressure transducer (preamplifier 8805 B, recorder 7782 A, transducer 267 BC) following cannulations of the carotid artery in rats weighing 200-250 g and anesthetized with pentobarbital (50 mg/kg). The test samples were dissolved in 0.85% saline and administered via a tail vein.

[5] = system: rats; assay: Hyperglycemic Assay; type: in vivo, rat; conditions: 15 minutes after injection
Protocol: Rats weighing 100-125 g were anesthetized with pentobarbital (50 mg/kg). The test samples were dissolved in 0.85% saline and administered via a tail vein. Each animal was killed by decapitation 15 minutes after injection and plasma glucose levels were measured by the method of Ceriotti and Frank. […] The plasma glucose values are given in mg %.

[6] = system: guinea pig ileum; assay: Contraction of Guinea Pig Ileum; conditions: ileum segments in Tyrode's solution at 37°
Protocol: Freshly dissected segments of guinea pig ileum were suspended in a 40 ml bath which was maintained at 37° and serated with a mixture of O2 --CO2 (95:5), and containing Tyrode's solution.

[7] = Simulation of isolation steps: stability in acetone 1 N HCl at 37° C.; type: physicochemical
Protocol: Toward simulation of these isolation steps, both in terms of temperature and the concentration of hydrochloric acid, 2 mg of synthetic [Gln^4 ]-neurotensin was dissolved in a mixture of acetone 1 N HCl (100:3 v/v), and this solution was maintained at 37° C. for 12 hours which can be presumed to be less than the time of the original large scale operation at the New England Enzyme Center in Boston. An aliquot of the solution was taken for thin layer electrophoresis on cellulose plates (160 microns, Eastman Chromatographic sheet) at 500 volts in pyridine-acetate buffer, pH 6.5. The major spot on the plate corresponded to [Gln^4 ]-neurotensin.However, a new and minor spot moving toward the cathode was present which had the same TLC retention time as neurotensin. The solution was allowed to stand overnight, and it was then maintained again at 37° for a second 12-hr period. […] The minor spot had increased during the second 12-hr period. The remaining solution was concentrated under reduced pressure at room temperature to remove acetone, and the aqueous residue was then lyophilized. The residual white powder was subjected to thin layer electrophoresis on cellulose plates and pyridine acetate buffer at pH 6.5 and at 500 volts. […] The Rf values were identical with those of an authentic specimen of [Gln^4 ]-neurotensin as follows: Rf^1 0.25; Rf^2 0.89; Rf^3 0.50; Rf^4 0.42; Rf^5 0.21; and Rf^6 0.98.
In the second experiment 10 mg of pure [Gln^4 ]-neurotensin was dissolved in a mixture of acetone 1 N HCl (100:3 v/v), and the solution was maintained at 37° C. for 27 hours to simulate again the steps of isolation which are being critiqued. This time, 3 spots were observed on electrophoretic analysis of an aliquot of the solution which had been maintained at 37° for 27 hrs. Preparative thin layer electrophoresis, extraction, and workup yielded 4.2 mg of recovered [Gln^4 ]-neurotensin and 4.3 mg of neurotensin. The third and much weaker spot was due to only a trace amount of another peptide which presumably resulted from further hydrolysis. […] The fact that in these two experiments, not all of the [Gln^4 ]-neurotensin was converted to neurotensin is relatively unimportant, because these experiments on hydrolysis of the pure [Gln^4 ]-neurotensin only simulates the conditions of processing of 20-45 kg of hypothalamic tissue.

[8] = 10 mg in acetone 1 N HCl (100:3 v/v), 27 hours

Compound	dose inducing significant motor inhibition, vagally innervated antral pouches [1] [ng/kg/min]	dose inhibiting motor activity, vagally denervated fundic pouches [1]	% Cross Ractivity (Ab #4, #6) [2]	action in the peripheral vasculature ([3]; anesthetized dogs)	blood glucose concentration ([3]; anesthetized dogs)	cardiac action ([3]; anesthetized dogs)	action in the peripheral vasculature ([3]; anesthetized dogs, listed as [Gln]^4 -NT)	lipid metabolism in adipose tissue ([3]; subcutaneous adipose tissue)	-ΔSystemic Blood Pressure [4] [mm HG]	Hyperglycemic Assay, plasma glucose ([5]; 25 picomoles/100 g body weight via tail vein) [mg %]	Hyperglycemic Assay, plasma glucose ([5]; 50 picomoles/100 g body weight via tail vein) [mg %]	Hyperglycemic Assay, plasma glucose ([5]; 100 picomoles/100 g body weight via tail vein) [mg %]	Contraction of Guinea Pig Ileum, potency [6]	recovered [Gln^4 ]-neurotensin ([7]; 2 mg in acetone 1 N HCl (100:3 v/v), two 12-hr periods)	neurotensin formed [7, 8] [mg]	recovered [Gln^4 ]-neurotensin [7, 8] [mg]	stability under the isolation conditions ([7]; acetone 1 N HCl (100:3 v/v))
CC[C@H](C)[C@H](NC(=O)[C@H](Cc1ccc(O)cc1)NC(=O)[C@@H]1CCCN1C(=O)[C@H](CCCNC(=N)N)NC(=O)[C@H](CCCNC(=N)N)NC(=O)[C@@H]1CCCN1C(=O)[C@H](CCCCN)NC(=O)[C@H](CC(N)=O)NC(=O)[C@H](CCC(N)=O)NC(=O)[C@H](Cc1ccc(O)cc1)NC(=O)[C@H](CC(C)C)NC(=O)[C@@H]1CCC(=O)N1)C(=O)N[C@@H](CC(C)C)C(=O)O [[Gln^4]-NT]	6.3	above 25 ng × kg^-1 × min^-1	90-100%	delayed vasoconstriction which is prominent is subcutaneous adipose tissue	increased blood glucose concentration	no cardiac action	both vasodilator and vasoconstrictor actions	no evidence of a change in lipid metabolism in adipose tissue	42 ± 8	15±5	34±4	116	about equivalent potency	About 1 mg	4.3	4.2	hydrolyzed or converted to neurotensin
Substance P (RPKPQQFFGLM-NH2; UniProt P20366 58-68, looked up) [another polypeptide extracted from the hypothalamus, reference compound]				hypotension and pronounced vasodilation and no vasoconstrictor or metabolic actions													
